{
  "source": "patent US9889146B2",
  "about": "“Benzoxaborole compounds and uses thereof” (priority 2012, dated 2018)",
  "system": "E. coli clinical isolates from subject E. coli 2",
  "test": "GSK2251052 MIC of clinical isolates, subject E. coli 2",
  "format": "cell-based",
  "conditions": "for MIC: Escherichia coli, read-out: GSK2251052 MIC GSK results",
  "method": "Minimum inhibitory concentrations (MICs) were determined using the CLSI (Clinical and Laboratory Standards Institute, formerly NCCLS) recommended broth microdilution methodology [NCCLS, 2003] using defined media.\nAlmost all clinical isolates were determined to contain T247I in addition to a second mutation in editing domains 1 or 2. The second mutations include Asp251Asn, Ala323 Val, Arg344Cys/His and Asp345Ala. On Day 11 and at Follow Up a double mutant (R344H; D345A) was also isolated (see Table 14). For these clinical isolates, five independent colonies were characterized from day 6 to late follow-up, and leuS and promoter regions were sequenced from all isolates.",
  "note": "Read-outs that look alike come from different tables or passages of the source.",
  "data": [
    {"smiles": "NC[C@H]1OB(O)c2c(OCCCO)cccc21", "note": "[GSK2251052, (S)-3-aminomethyl-7-(3-hydroxy-propoxy)-3h-benzo[c][1,2]oxaborol-1-ol]", "values": [
      {"measurement": "MIC", "setting": "24 h, subject E. Coli 2, day 1, no LeuRS change", "value": 0.25, "unit": "µg/mL"},
      {"measurement": "MIC", "setting": "48 h", "value": 512, "unit": "µg/mL"},
      {"measurement": "MIC", "setting": "72 h", "value": 512, "unit": "µg/mL"},
      {"measurement": "MIC", "setting": "96 h", "value": 512, "unit": "µg/mL"},
      {"measurement": "MIC", "setting": "120 h", "value": 512, "unit": "µg/mL"},
      {"measurement": "MIC", "setting": "144 h", "value": 1020, "unit": "µg/mL"},
      {"measurement": "MIC", "setting": "168 h", "value": 1020, "unit": "µg/mL"},
      {"measurement": "MIC", "setting": "192 h", "value": 1020, "unit": "µg/mL"},
      {"measurement": "MIC", "setting": "216 h", "value": 1020, "unit": "µg/mL"},
      {"measurement": "MIC", "setting": "240 h", "value": 1020, "unit": "µg/mL"},
      {"measurement": "MIC", "setting": "264 h", "value": 1020, "unit": "µg/mL"},
      {"measurement": "MIC", "setting": "288 h", "value": 1020, "unit": "µg/mL"},
      {"measurement": "MIC", "setting": "312 h", "value": 1020, "unit": "µg/mL"},
      {"measurement": "MIC", "value": 1020, "unit": "µg/mL"},
      {"measurement": "GSK2251052 MIC GSK results", "setting": "subject E. Coli 2, Follow-up, 5x R344H, D345A", "value": 1024, "unit": "µg/mL"},
      {"measurement": "GSK2251052 MIC GSK results", "setting": "subject E. Coli 2, day 9, 4x T247I, D251N", "value": 1024, "unit": "µg/mL"},
      {"measurement": "GSK2251052 MIC GSK results", "setting": "subject E. Coli 2, day 10, 3x T247I, A323V", "value": 1024, "unit": "µg/mL"},
      {"measurement": "GSK2251052 MIC GSK results", "setting": "subject E. Coli 2, day 11, 4x R344H, D345A", "value": 1024, "unit": "µg/mL"},
      {"measurement": "GSK2251052 MIC GSK results", "setting": "subject E. Coli 2, day 12, 4x T247I, A323V", "value": 1024, "unit": "µg/mL"}
    ]}
  ]
}
